SMILES strings stand for the structures.

Regarding `COC(=O)c1ccc(/C=C/C(=O)NOC2CCCCO2)s1` (stereo unspecified), the melting point (usually the temperature of the solid-liquid transition) was 177 °C.
In turn, `CC(C)=CCC[C@H](C)CC(=NO)C(C[C@@H](C)CCC=C(C)C)=NO` showed a melting point of 131 to 132 °C.
`Cn1ncc2nn(-c3cccc(C(F)(F)F)c3)c(=O)cc21` returned a melting point of 160 to 163 °C.
The compound `COc1cccnc1CSCCN=C(NC#N)SC` displayed a melting point of 102 to 103 °C.
As to `COc1ccc(C(=O)Nc2ccc3ccc(C=CN(C)C)nc3n2)cc1`, the melting point came out at 240 °C.
For `COc1ccc(C(=O)O)c([N+](=O)[O-])c1OC` the value was 200 to 202 °C; for `c1ccc(NCc2nccc(-c3ccc(-c4ccc(N(c5ccccc5)c5ccccc5)cc4)cc3)n2)cc1`, 200 to 201 °C.
The figure for `CC[C@H](COC)n1cc(Cl)nc(N2CCc3cc(OC)cc(C)c32)c1=O` is 62 to 64 °C.
`Cc1c[nH]c(-c2ccccc2)c1-c1ccccc1` had a melting point of 163 to 164 °C.
`CC12CCC3c4ccc(O)cc4CCC3(C)C1CCC2O` (stereo unspecified) showed a melting point of 168 to 170 °C.
Take `CN=C(NC#N)NCCSCc1c[nH]cn1`: the melting point lay in the range of 138 to 140 °C.
The figure for `CC[C@H](C1CC1)n1cc(Cl)nc(N2CCc3cc(OC)cc(Cl)c32)c1=O` is 118 to 120 °C; for `CC(C)CC(Sc1ccccc1)c1c(O)cc(-c2ccccc2)oc1=O` (stereo unspecified) it is 154 to 156 °C.
On to `CCCc1ccc2nc(COc3ccc(F)c(C(N)=O)c3F)sc2c1`, for which the melting point lay in the range of 173 to 175 °C.
For `Cc1ccccc1C1CCN(C(=O)CCC(=O)c2ccc3c(c2)CCNCC3)CC1` the value was 93 to 95 °C.
For `O=[N+]([O-])c1cccc(-c2csc(NS(=O)(=O)c3ccc(Cl)c(Cl)c3)n2)c1` the value was 189 to 191 °C.
For `O=S(=O)(NCCCCCOc1ccc(-n2ccnc2)cc1)c1ccc(Br)cc1` the value was 137 to 138 °C.
Regarding `CC(C)Cn1cnc2c(N)nc3ccc(-c4ccsc4)cc3c21`, the melting point lay in the range of 235 to 236 °C.
The figure for `Cn1nc(-c2nc(Br)c(N)nc2-c2ccccc2)ccc1=O` is 220 to 222 °C; for `CCn1ncc2c1ncc1c(NCCN(C)C)nc3cc(C)nn3c12` it is 124 to 126 °C.
For `O=C(NNc1nc2ccccc2n2cccc12)c1cc2ccccc2[nH]1` the value was 186 °C; for `CCCCCc1ccc(-c2c(C(C)C)ccc(CO)c2C(C)C)nc1`, 81 to 82 °C.
For `CCS(=O)(=O)c1ncc(C(F)(F)F)cn1` the value was 98 °C; for `O=C1CCOc2c(Cl)cc(Br)cc21`, 109 °C.
As to `O=c1cc2c(nn1-c1ccc(Cl)cc1)-c1cc(CO)sc1CC2`, the melting point was in the range of 195 to 197 °C.
The figure for `N#Cc1c(-c2cccc(N)c2)cc(-c2ccccc2O)nc1NC(=O)c1ccsc1` is 257 to 260 °C; for `Cn1c(=O)c2nc(-c3ccc(/C=C/C(=O)O)cc3)[nH]c2n(Cc2ccc(C#N)cc2)c1=O` it is above 350 °C.
The compound `Cc1c(-c2ccc(O)cc2)n(Cc2ccc(OCCN3CCCCC3C)cc2)c2ccc(O)cc12` (stereo unspecified) displayed a melting point of 121 to 123 °C.
`N#Cc1ccc(C(=O)NC(=S)NC2CCCCC2)cc1` had a melting point of 136 to 137 °C.
Consider `CCCCCN(CCCCC)C(=O)C(CCC(=O)OC)CS(=O)(=O)c1ccc(Cl)c(Cl)c1` (stereo unspecified), for which the melting point is 52 to 54 °C.
The figure for `O=C(O)c1[nH]c2ccc(Cl)cc2c1S(=O)(=O)c1nccs1` is 260 to 261 °C; for `N#Cc1ccc2c(c1)C(CCC1CC1)(C(F)(F)F)c1nc[nH]c(=O)c1N2` (stereo unspecified) it is above 280 °C; for `COc1c(C=O)cccc1Oc1ccccc1C` it is 53 to 55 °C.
`Cc1nnc(-c2ccc3ncn(C4CCN(Cc5ccccc5)CC4)c3c2)o1` displayed a melting point of 173 to 174 °C.
For `CCC12CCC3C4=C(CC(OC)=CC4)C(C)CC3C1CCC2O` (stereo unspecified) the value was 176 to 182 °C; for `NS(=O)(=O)c1cccc(C(O)CO)c1` (stereo unspecified), 170 to 171 °C.
`Cc1cc(N2CCN(Cc3ccc(N)cc3)C2=O)sc1C(=O)NCc1cccnc1` gave a melting point of 118 to 120 °C.
For `O=C(O)C(=O)c1ccc(OCCOc2ccc3ccccc3c2)c([N+](=O)[O-])c1` the value was 164 °C; for `Cn1c(=O)c2c(ncn2CCCN2CCN(c3nccnc3Cl)CC2)n(C)c1=O`, 205 to 207 °C; for `CC(C)(C)OC(=O)N1CCC(OCc2ccccc2)C1CC(O)Cn1cnc2cccc(F)c2c1=O` (stereo unspecified), 219 °C.
With `COC(=O)C#CC(=O)c1ccc(OC)cc1`, the melting point was found to be 68 °C.
For `Cc1ccc2[nH]c(CO)cc2c1` the value was 94 to 95 °C; for `COc1ccc2cc(C(C)C(=O)OCC(=O)NCCCO[N+](=O)[O-])ccc2c1` (stereo unspecified), 51 to 53 °C; for `CC(=O)[C@H]1CC=C(C)C(=O)C1`, 35 °C.
`COc1cc(-c2cn3cccnc3n2)ccc1O` yielded a melting point of 230 to 233 °C.
The figure for `CCc1ccc(C)cc1-n1cncc1C(=O)OC` is 56 to 57 °C; for `COC(=O)CCCc1cc2nc(Cl)ccc2n1S(=O)(=O)c1ccc(F)c([N+](=O)[O-])c1` it is 129 to 131 °C; for `CCCC1CCC2C3CCc4cc(O)c(C=O)cc4C3CCC12C` (stereo unspecified) it is 122 to 123 °C.
With `CCNCC1CCN(c2c(F)cc3c(=O)c(C(=O)O)cn(CC)c3c2F)C1` (stereo unspecified), the melting point fell in the range of 208 to 210 °C.
The compound `Fc1ccc(Nc2ncnc3cnc(NCC4CCNCC4)nc23)cc1Cl` displayed a melting point of 204 to 206 °C.
For the compound `CC(C)(C)OC(=O)N1CSCC1C(=O)Nc1ccc(-n2nc(C(F)(F)F)cc2C(F)(F)F)cc1` (stereo unspecified), the melting point lay within 82 to 84 °C.
For `C=CCn1c(=S)n(C2OC(CO)C(O)C2O)c2nc(N)[nH]c(=O)c21` (stereo unspecified) the value was above 230 °C.
For `CC(=O)NS(=O)(=O)c1ccc(-c2c(-c3cccc(F)c3)noc2C)cc1` the value was 144 to 145 °C; for `COc1ccc(-c2nnc3c4ccccc4c(Nc4cccc(-c5nn[nH]n5)c4)nn23)cc1`, 305 to 308 °C.
The figure for `COc1ccc2c(c1)C(=O)C(CN1CCC(O)(c3ccc(F)cc3)CC1)CC2` (stereo unspecified) is 193 to 195 °C.
Compound `CN(C(=O)c1ccc(Cl)cc1)c1ccccc1CCCC(=O)O` came in with a melting point of 123 °C.
Compound `O=C(c1ccccc1)N1CCC(CCl)CC1` yielded a melting point of 68 to 70 °C.
Compound `CC(O)C1(C)COC(c2ccc(F)cc2)OC1` (stereo unspecified) gave a melting point of 78 °C.
For `COc1ccc(Nc2cc(N3CCCC3)nc(N3CCCC3)n2)cc1` the value was 162 to 163 °C; for `CC(C)(C)OC(=O)N1CCn2c(c(C(=O)O)c(C#N)c2-c2ccccc2)C1`, 212 to 215 °C.
The figure for `CCOC(=O)Cn1c(=O)c(-c2ccccc2Cl)cc2cnc(NC3C4CN(Cc5ccccc5)CC43)nc21` (stereo unspecified) is 186 to 188 °C; for `CC[C@H](C)[C@H](NC(=O)c1ccc(C)cc1)NC(=S)Nc1cccnc1` it is 102 to 104 °C.
For `O=C(Nc1ccc2c(c1)C(=O)CCCC2)OCc1ccccc1` the value was 120 to 121 °C; for `CCOC(=O)COc1ccc(C(=O)CCC(=O)O)cc1Cl`, 137 to 139 °C; for `CCOC(=O)c1csc(Cc2ccc([N+](=O)[O-])cc2)n1`, 122 to 123 °C.
Consider `Cn1c2c(c3ccccc31)OCC2=O`, for which the melting point lay in the range of 113 to 116 °C.
`COc1ccc(-c2cccc3ccccc23)cc1OC1CCCC1` gave a melting point of 123 to 125 °C.
`O=C(Nc1ccc(C[C@H](NS(=O)(=O)N2CCCCCC2)C(=O)O)cc1)c1c(Cl)cncc1Cl` came in with a melting point of 185 °C.
For `Cc1sc(-c2ccccc2)nc1COc1ccc(Cn2cc(CCC(=O)O)c(-c3ccccc3)c2)cc1` the value was 157 to 158 °C; for `CN1CCC(c2c[nH]c3ccc(N)cc23)C(F)C1` (stereo unspecified), 105 to 107 °C; for `CCCNc1ccc(NCc2ccc(NCCC)nc2)nc1`, 129 to 130 °C.
In turn, `COc1cccc2sc(C(=O)Nc3nnn[nH]3)c(OC(C)C)c12` displayed a melting point of 233 °C.
Compound `O=C(C(=O)N(CCO)CCO)c1ccc(OCCOc2ccc3ccccc3c2)cc1` registered a melting point of 128 to 133 °C.
For `CCNC(=O)c1sc(N2CCN(Cc3ccc(OC(F)(F)F)cc3)C2=O)nc1C` the value was 139 to 140 °C; for `O=C(OC1CCCCC1)c1ccc(Cl)c([N+](=O)[O-])c1`, 57 to 58 °C.
For `CS(=O)(=O)c1ccc(-n2nc(C(F)(F)F)cc2-c2ccc(-c3ccoc3)cc2)cc1` the value was 165 to 166 °C; for `CCOC(=O)c1cn(Cc2c(F)cccc2F)c2sc(-c3ccccc3)c(CBr)c2c1=O`, 206 °C.
For `CSc1ccc(-c2cn3c(c2-c2ccccc2)CCC3)cc1` the value was 112 °C.
Take `CCC1c2cccn2-c2ccc(F)cc2N1S(=O)(=O)c1cc(C)c(OC)c(C)c1` (stereo unspecified): the melting point was in the range of 140 to 142 °C.
Compound `CC(C)(C)c1cc(Cl)c2c(c1)CNS(=O)(=O)O2` registered a melting point of 158 to 160 °C.
The figure for `CC(=O)NC1CCc2c([nH]c3ccc(Br)cc23)C1` (stereo unspecified) is 210 to 211 °C; for `Cc1nc2c(cc1CCCO)c(=O)c(C(=O)NCc1ccc(Cl)cc1)cn2C` it is 176 to 177 °C; for `O=C(Nc1ccccc1F)c1c[nH]c2c1C(=O)CCC2` it is 238 to 240 °C.
For `Nc1ccc2c(c1)CN(c1c(F)cc3c(=O)c(C(=O)O)cn(-c4ccc(F)cc4F)c3c1F)C2` the value was above 300 °C.
For `Cc1cc(COc2ccc(S(=O)(=O)NC[C@@H](C(=O)NO)N3CCN(S(C)(=O)=O)CC3)cc2)c2ccccc2n1` the value was 185 °C; for `Cc1c(CO)ncnc1N(C)C`, 46 to 48 °C.
On to `Cc1ccc2nc(-c3cccc(Cl)c3)oc(=O)c2c1`, for which the melting point fell in the range of 160 to 162 °C.
For `C1=C(CCCc2ccccc2)CCN(Cc2nc3ccccc3[nH]2)C1` the value was 131 to 132 °C; for `O=C(Nc1ccc(-n2nc(C(F)(F)F)cc2C2CC2)cc1)c1c(Cl)cncc1Cl`, 182 to 184 °C.
As for `Cn1nnc2sc(N)cc2c1=O`, the melting point fell in the range of 190 to 194 °C.
Compound `C=C(Cl)CNC(=S)SCc1ccccc1` showed a melting point of 46 to 48 °C.
